Experimental data published in patent US7696408B2, “Method to enhance Agrobacterium-mediated transformation of plants” (Regents of the University of Minnesota, priority 1999, dated 2010).

Assays:
[1] = test system: soybean cot-node explants; assay: De novo shoot production on explants at four weeks on shoot induction media; assay type: cell-based, Glycine max; settings: for explants producing de novo shoots at four weeks: Experiment #1, Bert; for de novo shoot growth: Experiment #2, MN1301; for explants developing de novo shoots: Experiment #3, MN0901
Source text: The explants were removed from the chamber after 14 days and transferred to fresh shoot induction media containing herbicide selection. During the transfer, the hypocotyl was carefully removed from the developing shoot mass and imbedded into the media with the differentiating tissue flush with the media surface. The plates were placed back into the growth chamber for an additional 2 weeks. At the 4 week time point, explants without de novo shoot production were discarded. The cotyledons were then removed from the differentiating tissue by cutting at the base of the node and the callus trimmed before transferring into shoot elongation media containing MS salts (murashige and Skoog, 1962), MSIII iron stock, 3% sucrose, 3 mM MES, 0.8% agar, and filter sterilized B5 vitamins, 50 mg/l asparagine, 100 mg/l pyroglutamic acid, 1 mg/l zeatin riboside, 0.1 mg/l indole-acetic acid, 0.5 mg/l GA3, 100 mg/l cefotaxime, 500 mg/l ticarcillin, 1.3-5 mg/l PPT; pH 5.6). Also at this time, a percentage of the explants were sliced into about 10 sections and stained for both GUS positive sectors and GUS positive shoots. Every 2 weeks the explants were transferred into new shoot elongation media after removing dead plant tissue and the bottom of the explant cut to encourage shoot elongation of transformed shoots.
Five levels of cysteine were tested: 0 mg/l, 100 mg/l, 200 mg/l, 300 mg/l, and 400 mg/l. Cysteine was incorporated into the solid co-culture media by preparing the media as described hereinabove and dissolving the L-cysteine into the filter sterilized components. For these three experiments, no cysteine was added into the liquid co-cultivation media. To reduce experimental error, explants were placed randomly on all five different treatments and all plates within a treatment were shuffled after completion of the experiment. After co-cultivation, the explants in each treatment were placed on shoot induction media with ½ the concentration of cysteine as in the co-cultivation media. The specific details for each experiment are as follows: • 1. Experiment #1 used the Minnesota genotype Bert and Agrobacterium strain AGL1 containing the BSF16 binary plasmid. A total of 276 explants were wounded and infected with Agrobacterium. After co-cultivation, 10 explants of each treatment were immersed into GUS stain and assayed for transient expression and the remaining explants were washed and transferred to shoot induction media containing 1.33 mg/l PPT for all four weeks. De novo shoots were produced on 74% of the treatments containing 0 mg/l cysteine, 57% on 100 mg/l, 63% on 200 mg/l, 70% on 300 mg/l, and 77% on 400 mg/l at four weeks. […] Experiment #2 used the Minnesota genotype MN1301 and Agrobacterium strain AGL1 containing the BSF16 binary plasmid. A total of 229 explants were dissected, cut, and inoculated. For each cysteine-treatment, half of the explants were incubated during co-cultivation at 21-22° C. and the other half at 25° C. Five explants of each cysteine/temperature treatment were sacrificed to GUS stain and the remaining transferred to fresh shoot induction media containing 1.33 mg/l PPT for 2 weeks. The herbicide level was raised to 3.33 mg/l PPT for the second 2 weeks on shoot induction media. Because of poor de novo shoot growth (35% on 0 mg/l cysteine, 22.8% on 100 mg/l, 32% on 200 mg/l, 42% on 300 mg/l, and 28% on 400 mg/l) and contamination, all explants were sacrificed to GUS stain at the 4 week time point. • 3. Experiment #3 used the Minnesota genotype MN0901 and Agrobacterium strain AGL1 containing the BSF16 binary plasmid. Seedlings were germinated as usual, however, one half of the plates were placed at 4° C. for 24 hours before inoculation. A total of 390 explants were wounded and inoculated. For each cysteine/seedling-temperature treatment, one half of the explants were incubated during co-cultivation at 21-22° C. and the other half at 25° C. […]

soybean explants = assay: Enzymatic browning and growth of soybean explants after co-cultivation; assay type: cell-based, Glycine max; settings: for enzymatic browning of soybean explants: cysteine (e.g., 400-1000 mg/l) in solid co-cultivation medium

N[C@@H](CS)C(=O)O [L-cysteine]
explants producing de novo shoots at four weeks ([1]; 100 mg/l cysteine, control 74%): 57% | explants producing de novo shoots at four weeks ([1]; 200 mg/l cysteine): 63% | explants producing de novo shoots at four weeks ([1]; 300 mg/l cysteine): 70% | explants producing de novo shoots at four weeks ([1]; 400 mg/l cysteine): 77% | de novo shoot growth ([1]; 100 mg/l cysteine, control 35%): 22.8% | de novo shoot growth ([1]; 200 mg/l cysteine): 32% | de novo shoot growth ([1]; 300 mg/l cysteine): 42% | de novo shoot growth ([1]; 400 mg/l cysteine): 28% | explants developing de novo shoots ([1]; 100 mg/l cysteine, control 64%): 53% | explants developing de novo shoots ([1]; 200 mg/l cysteine): 54% | explants developing de novo shoots ([1]; 300 mg/l cysteine): 53% | explants developing de novo shoots ([1]; 400 mg/l cysteine): 61% | callus growth on the hypocotyl (soybean explants; co-cultivated in 1000 mg/l cysteine, 28 days): little callus growth on the hypocotyl | growth of the hypocotyls of explants (soybean explants; co-cultivated in 800 and 1000 mg/l cysteine, experiment #7): little to no growth of the hypocotyls | enzymatic browning of soybean explants (soybean explants; listed as Cysteine): decreased | enzymatic browning of soybean explants (soybean explants; listed as cysteine): less browning
